Experimental data reported in paper PMC3830801, “Synthesis and Biological Evaluation of 2-Hydroxy-3-[(2-aryloxyethyl)amino]propyl 4-[(Alkoxycarbonyl)amino]benzoates” (The Scientific World Journal, 2013).

What was measured:
[1] = pKa determination by RP-HPLC; format: physicochemical; conditions: from retention factor vs pH of mobile phase, recalculated for water medium
[2] = system: Mycobacterium avium subsp. paratuberculosis CIT03; assay: In vitro antimycobacterial evaluation (alamarBlue, MIC); format: cell-based; conditions: for MIC: Mycobacterium avium, 264 h, MIC/IC90, 11 days incubation, 37°C
Method: (§1) Clinical isolates of Mycobacterium avium subsp. paratuberculosis CIT03 and M. intracellulare were grown in Middlebrook broth (MB), supplemented with oleic-albumin-dextrose-catalase supplement (OADC, Becton Dickinson, UK) and mycobactin J (2 μg/mL). Identification of these isolates was performed using biochemical and molecular protocols. At log phase growth, the culture (10 mL) was centrifuged at 15,000 rpm/20 min using a bench top centrifuge (Model CR 4–12, Jouan Inc., UK). Following the removal of the supernatant, the pellet was washed in fresh Middlebrook 7H9GC broth and resuspended in fresh supplemented MB (10 mL). The turbidity was adjusted to match McFarland standard no. 1 (3 × 10^8 cfu) with MB broth. A further 1 : 20 dilution of the culture was then performed in MB broth. The antimicrobial susceptibility of all four mycobacterial species was investigated in a 96-well plate format. In these experiments, sterile deionised water (300 μL) was added to all outer-perimeter wells of the plates to minimize evaporation of the medium in the test wells during incubation. Each evaluated compound (100 μL) was incubated with each of the mycobacterial species (100 μL). Dilutions of each compound were prepared in duplicate. For all synthesized compounds, final concentrations ranged from 1,000 μg/mL to 8 μg/mL. All compounds were prepared in DMSO, and subsequent dilutions were made in supplemented MB. The plates were sealed with parafilm and incubated at 37°C, for 7 days in the case of M. intracellulare and 11 days in the case of M. avium paratuberculosis. Following incubation, a 10% addition of alamarBlue (AbD Serotec) was mixed with each well, and readings at 570 nm and 600 nm were taken, initially for background subtraction and subsequently after 24 h reincubation. […] For noninterfering compounds, a blue colour in the well was interpreted as an absence of growth, and a pink colour was scored as growth. The MIC was initially defined as the lowest concentration which prevented a visual colour change from blue to pink. […] The MIC/IC90 value is routinely and widely used in bacterial assays and is a standard detection limit according to the Clinical and Laboratory Standards Institute (CLSI, http://www.clsi.org/).

[3] = system: Mycobacterium intracellulare; assay: as above; format: cell-based; conditions: for MIC: Mycobacterium intracellulare, 168 h, MIC/IC90, 7 days incubation, 37°C
Method: as §1

[4] = Lipophilicity determination by HPLC (capacity factor k / log k); format: physicochemical; conditions: RP-HPLC, C18, MeOH 55%/H2O 45%
Description: A Waters Alliance 2695 XE HPLC separation module and a Waters Photodiode Array Detector 2996 (Waters Corp., Milford, MA, USA) were used. A Symmetry C18 5 μm, 4.6 × 250 mm, part number WAT054275 (Waters Corp., Milford, MA, USA) chromatographic column was used. The HPLC separation process was monitored by Empower 2 Chromatography Data Software, Waters 2009 (Waters Corp., Milford, MA, USA). A mixture of MeOH p.a. (55%) and H2O-HPLC–Milli-Q Grade (45%) was used as a mobile phase. The total flow of the column was 1.0 mL/min, injection volume 30 μL, column temperature 45°C, and sample temperature 10°C. The detection wavelength of 210 nm was chosen. The KI methanolic solution was used for the dead time (t D) determination. Retention times (t R) were measured in minutes. The capacity factors k were calculated using the Empower 2 Chromatography Data Software according to formula k = (t R − t D)/t D, where t R is the retention time of the solute, whereas t D denotes the dead time obtained using an unretained analyte. logk, calculated from the capacity factor k, is used as the lipophilicity index converted to logP scale.

Row | SMILES | pKa [1] | MIC [2] | MIC [3] | Log k [4] | antimycobacterial activity against M. avium subsp. paratuberculosis (in words) [2] | antimycobacterial activity against M. intracellulare (in words) [3]
1 | CCOC(=O)Nc1ccc(C(=O)OCC(O)CNCCOc2ccccc2F)cc1.Cl (stereo not drawn) [Compound 22b, 3-[2-(2-Fluorophenoxy)ethylamino]-2-hydroxypropyl 4-(Ethoxycarbonylamino)benzoate Hydrochloride] | 7.99 | 547 µM | 547 µM | 0.4011 |  | 
2 | CO[C@H]1/C=C/O[C@@]2(C)Oc3c(C)c(O)c4c(O)c(c(/C=N/N5CCN(C)CC5)c(O)c4c3C2=O)NC(=O)/C(C)=C\C=C\[C@H](C)[C@H](O)[C@@H](C)[C@@H](O)[C@@H](C)[C@H](OC(C)=O)[C@@H]1C [RIF, rifampicin, reference compound] |  | > 109 µM |  |  |  | 
3 | CCCOC(=O)Nc1ccc(C(=O)OCC(O)CNCCOc2c(OC)cccc2OC)cc1.Cl (stereo not drawn) [Compound 21c, 2-Hydroxy-3-[2-(2,6-dimethoxyphenoxy)ethylamino]-propyl 4-(Propoxycarbonylamino)benzoate Hydrochloride] | 8.9 | 117 µM | 487 µM | 0.4052 |  | 
4 | NC(=O)c1cnccn1 [PZA, pyrazinamide, reference compound] |  | > 2030 µM | > 812 µM |  | inactive | inactive
5 | COC(=O)Nc1ccc(C(=O)OCC(O)CNCCOc2ccc(F)cc2)cc1.Cl (stereo not drawn) [Compound 23a, 3-[2-(4-Fluorophenoxy)ethylamino]-2-hydroxypropyl 4-(Methoxycarbonylamino)benzoate Hydrochloride] | 8.04 | 564 µM | 564 µM | 0.3915 |  | 
6 | CCOC(=O)Nc1ccc(C(=O)OCC(O)CNCCOc2ccc(OC)cc2)cc1.Cl (stereo not drawn) [Compound 20b, 2-Hydroxy-3-[2-(4-methoxyphenoxy)ethylamino]-propyl 4-(Ethoxycarbonylamino)benzoate Hydrochloride] | 8.23 | 533 µM | 533 µM | 0.3999 |  | 
7 | CCOC(=O)Nc1ccc(C(=O)OCC(O)CNCCOc2ccccc2OC)cc1.Cl (stereo not drawn) [Compound 19b, 2-Hydroxy-3-[2-(2-methoxyphenoxy)ethylamino]-propyl 4-(Ethoxycarbonylamino)benzoate Hydrochloride] | 8.9 | 128 µM | 533 µM | 0.3976 |  | 
8 | CCOC(=O)Nc1ccc(C(=O)OCC(O)CNCCOc2c(OC)cccc2OC)cc1.Cl (stereo not drawn) [Compound 21b, 2-Hydroxy-3-[2-(2,6-dimethoxyphenoxy)ethylamino]-propyl 4-(Ethoxycarbonylamino)benzoate Hydrochloride] | 8.88 | 501 µM | 501 µM | 0.3956 |  | 
9 | CCOC(=O)Nc1ccc(C(=O)OCC(O)CNCCOc2ccc(F)cc2)cc1.Cl (stereo not drawn) [Compound 23b, 3-[2-(4-Fluorophenoxy)ethylamino]-2-hydroxypropyl 4-(Ethoxycarbonylamino)benzoate Hydrochloride] | 8.09 | 547 µM | 547 µM | 0.4032 |  | 
10 | COC(=O)Nc1ccc(C(=O)OCC(O)CNCCOc2ccccc2F)cc1.Cl (stereo not drawn) [Compound 22a, 3-[2-(2-Fluorophenoxy)ethylamino]-2-hydroxypropyl 4-(Methoxycarbonylamino)benzoate Hydrochloride] | 7.98 | 564 µM | 564 µM | 0.3904 |  | 
11 | COC(=O)Nc1ccc(C(=O)OCC(O)CNCCOc2ccc(OC)cc2)cc1.Cl (stereo not drawn) [Compound 20a, 2-Hydroxy-3-[2-(4-methoxyphenoxy)ethylamino]-propyl 4-(Methoxycarbonylamino)benzoate Hydrochloride] | 8.25 | 550 µM | 550 µM | 0.3881 |  | 
12 | NNC(=O)c1ccncc1 [INH, isoniazid, reference compound] |  | > 1820 µM | > 729 µM |  | inactive | inactive
